Source: US8394786B2, “Quinazoline derivatives” (Janssen Pharmaceutica N.V., priority 2003, dated 2013)

How the values were obtained:
EGFR = EGFR (Homo sapiens, UniProt P00533); experiment: In vitro inhibition of EGFR, Flash Plate or glass-fiber filter technology (C2); format: biochemical; set-up: 0.5 μg EGFR-kinase domain/well; details: EGFR-kinase domain, 5.0 μM unlabeled ATP, read-out: Kinase activity.(C2): pIC50 (converted)
Method: The in vitro inhibition of EGFR was assessed using either the Flash Plate technology or the glass-fiber filter technology as described by Davies, S. P. et al., Biochem J. (2000), 351; p. 95-105. The Flash Plate technology is generally described by B. A. Brown et al. in High Throughput Screening (1997), p. 317-328. Editor(s): Devlin, John P. Publisher: Dekker, New York, N.Y.
In the Flash Plate EGFR kinase reaction assay, a kinase substrate consisting of biotinylated poly(L-glutamic acid-L-tyrosine) (poly(GT)biotin), is incubated with the aforementioned protein in the presence of (^33P) radiolabeled ATP. (^33P) phosphorylation of the substrate is subsequently measured as light energy emitted using a streptavidin-coated Flash Plate (PerkinElmer Life Sciences) by trapping and quantifying the binding of the biotin tagged and radiolabeled substrate.
The EGFR kinase reaction is performed at 30° C. for 60 minutes in a 96-well microtiter FlashPlate (PerkinElmer Life Sciences). For each of the tested compounds a full dose response 1·10^−6M to 1·10^−10M has been performed. IRESSA° and Tarceva™ (erlotinib) were used as reference compounds. The 100 μl reaction volume contains 54.5 mM TrisHCl pH 8.0, 10 mM MgCl2, 100 μM Na3VO4, 5.0 μM unlabeled ATP, 1 mM DTT, 0.009% BSA, 0.8 μCi AT^33P, 0.35 μg/well poly(GT)biotin and 0.5 μg EGFR-kinase domain/well.
The reaction is stopped by aspirating the reaction mixture and washing the plate 3× with 200 μl wash/stop buffer (PBS+100 mM EDTA). After the final wash step 200 μl of wash/stop buffer was added to each well and the amount of phosphorylated (^33P) Poly(GT)biotin determined by counting (30 sec/well) in a microtiterplate scintillation counter.
In the glass-fiber filter technology EGFR kinase reaction assay, a kinase substrate consisting of poly(L-glutamic acid-L-tyrosine) (poly(GT)), is incubated with the aforementioned protein in the presence of (^33P) radiolabeled ATP. (^33P) Phosporylation of the substrate is subsequently measured as radioactivity bound on a glassfiber-filter.
The EGFR kinase reaction is performed at 25° C. for 10 minutes in a 96-well microtiterplate. For each of the tested compounds a full dose response 1·10^−6M to 1·10^−10M has been performed. IRESSA° and Tarceva™ (erlotinib) were used as reference compounds. The 25 μl reaction volume contains 60 mM TrisHCl pH 7.5, 3 mM MgCl2, 3 mM Mn Cl2, 3 μM Na3VO4, 50 μg/ml PEG20000, 5.0 μM unlabeled ATP, 1 mM DTT, 0.1 μCi AT^33P, 62.5 ng/well poly(GT) and 0.5 μg EGFR-kinase domain/well.
The reaction is stopped by adding 5 μl of a 3% phosphoric acid solution. 10 μl of the reaction mixture is then spotted onto a Filtermat A filter (Wallac) and washed 3 times for 5 min. in 75 mM phosphoric acid and 1 time for 5 min. in methanol prior to drying and quantification on the Typhoon (Amersham) using a LE phosphorage storage screen.

SKOV3 cells = experiment: Serum starved proliferation assay on the ovarian carcinoma SKOV3 cells (C3); format: cell-based; details: Homo sapiens, SK-OV-3, 72 h, EGF stimulated (100 ng/ml, 72 hours, serum free) or 72 hours with compounds; MTT cell viability assay; read-out: SKOV3 cell (C3): pIC50 (converted)
Method: The ovarian carcinoma cell line (SKOV3) was used in an epidermal growth factor stimulated cell proliferation assay, to assess the inhibitory effect of the compounds on EGF in whole cells.
In a first step the SKOV3 cells were incubated for 24 hours in the presence of 10% FCS serum. In the second step the cells were incubated with the compounds to be tested in a serum free condition (37° C. and 5% (v/v) CO2) and subsequently stimulated for 72 hours with EGF at a final concentration of 100 ng/ml. The effect of the compounds on the EGF stimulation was finally assessed in a standard MTT cell viability assay.
Alternatively, the SKOV3 cells were incubated for 24 hours in the presence of 10% FCS serum. In the second step the cells were incubated for 72 hours with the compounds to be tested and the effect of the compounds on cell proliferation was finally assessed in a standard MTT cell viability assay.

Sequence of EGFR (P00533 712-979 limits assumed): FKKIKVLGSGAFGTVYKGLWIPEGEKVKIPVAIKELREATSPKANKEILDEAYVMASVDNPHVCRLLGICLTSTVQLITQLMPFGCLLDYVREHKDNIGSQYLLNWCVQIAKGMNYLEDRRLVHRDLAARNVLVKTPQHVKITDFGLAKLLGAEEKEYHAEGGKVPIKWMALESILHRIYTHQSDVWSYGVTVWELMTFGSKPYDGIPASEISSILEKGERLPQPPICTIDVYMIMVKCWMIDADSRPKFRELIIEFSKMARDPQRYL

IC50 (EGFR) [nM]	IC50 (SKOV3 cells) [nM]	Compound
79.4	100	COc1cc2ncnc3c2cc1OCCN(C)CC(=O)NCCCc1ccc(Cl)cc1N3 [Compound 52, 4,6-ethanediylidenepyrimido[4,5-b][6,1,9,12]benzoxatriazacycloheptadecin-12(13H)-one, 19-chloro-8,9,10,11,14,15,16,21-octahydro-22-methoxy-10-methyl-]
200	501	CCN1CCOc2cc3c(ncnc3cc2OC)Nc2cc(Cl)ccc2CCCNC(=O)C1 [Compound 53, 4,6-ethanediylidenepyrimido[4,5-b][6,1,9,12]benzoxatriazacycloheptadecin-12(13H)-one, 19-chloro-10-ethyl-8,9,10,11,14,15,16,21-octahydro-22-methoxy-]
126	1260	COc1cc2ncnc3c2cc1OCC1CCCN1CC(=O)NCCCc1ccc(Cl)cc1N3 (stereo not drawn) [Compound 54, 1,22-ethanediylidene-5H,17H-pyrimido[4,5-b]pyrrolo[2,1-h][6,1,9,12]benzoxatriazacycloheptadecin-14(15H)-one, 7-chloro-10,11,12,13,18,19,19a,20-octahydro-24-methoxy-]
501	200	COc1cc2ncnc3c2cc1OCCCNCC(=O)NCCCc1ccc(Cl)cc1N3 [Compound 55, 4,6-ethanediylidene-8H-pyrimido[4,5-b][6,1,10,13]benzoxatriazacyclooctadecin-13(14H)-one, 20-chloro-9,10,11,12,15,16,17,22-octahydro-23-methoxy-]
1580	10000	COc1cc2ncnc3c2cc1OCC1CCCN(CC(=O)NCCCc2ccc(Cl)cc2N3)C1 (stereo not drawn) [Compound 56, 14H-4,6-ethanediylidene-9,13-methano-8H-pyrimido[4,5-b][6,1,12,15]benzoxatriazacycloeicosin-15(16H)-one, 22-chloro-9,10,11,12,17,18,19,24-octahydro-26-methoxy-]
15.8	2	COc1cc2ncnc3c2cc1OCCCNC(=O)CNC(=O)Cc1ccc(Cl)cc1N3 [Compound 60, 4,6-ethanediylidenepyrimido[4,5-b][6,1,10,13]benzoxatriazacycloheptadecine-12,15-dione, 19-chloro-8,9,10,11,13,14,16,21-octahydro-22-methoxy-]
126	2000	COCCN1CCOc2cc3c(ncnc3cc2OC)Nc2cc(Cl)ccc2CC(=O)NCC1=O [Compound 63, 4,6-ethanediylidene-8H-pyrimido[4,5-b][6,1,9,12]benzoxatriazacyclohexadecine-11,14-dione, 18-chloro-9,10,12,13,15,20-hexahydro-21-methoxy-10-(2-methoxyethyl)-]
100	501	COc1cc2ncnc3c2cc1OCCNC(=O)C(CC(C)C)NC(=O)Cc1ccc(Cl)cc1N3 (stereo not drawn) [Compound 67, 4,6-ethanediylidene-8H-pyrimido[4,5-b][6,1,9,12]benzoxatriazacyclohexadecine-11,14-dione, 18-chloro-9,10,12,13,15,20-hexahydro-21-methoxy-12-(2-methylpropyl)-]
12.6	6.31	COc1cc2ncnc3c2cc1OCCCNC(=O)C(CC(C)C)NC(=O)Cc1ccc(Cl)cc1N3 (stereo not drawn) [Compound 68, 4,6-ethanediylidenepyrimido[4,5-b][6,1,10,13]benzoxatriazacycloheptadecine-12,15-dione, 19-chloro-8,9,10,11,13,14,16,21-octahydro-22-methoxy-13-(2-methylpropyl)-]
251	31.6	COc1cc2ncnc3c2cc1OCCCCNC(=O)CNCc1ccc(Cl)cc1N3 [Compound 101, 4,6-ethanediylidenepyrimido[4,5-b][6,1,11,14]benzoxatriazacycloheptadecin-13(8H)-one, 19-chloro-9,10,11,12,14,15,16,21-octahydro-22-methoxy-]

Continued, compound first:

Compound	IC50 (EGFR) [nM]	IC50 (SKOV3 cells) [nM]
COc1cc2ncnc3c2cc1OCCN(C(=O)CN1CCOCC1)CC(=O)NCCCc1ccc(Cl)cc1N3 [Compound 50, 4,6-ethanediylidenepyrimido[4,5-b][6,1,9,12]benzoxatriazacycloheptadecin-12(13H)-one, 19-chloro-8,9,10,11,14,15,16,21-octahydro-22-methoxy-10-(4-morpholinylacetyl)-]	79.4	158
COc1cc2ncnc3c2cc1OCC1CCN(CC1)CC(=O)NCCCc1ccc(Cl)cc1N3 [Compound 57, 13H-4,6-ethanediylidene-9,12-ethanopyrimido[4,5-b][6,1,11,14]benzoxatriazacyclononadecin-14(15H)-one, 21-chloro-8,9,10,11,16,17,18,23-octahydro-26-methoxy-]	6310	398
COc1cc2ncnc3c2cc1OCCC1CCN(CC1)CC(=O)NCCCc1ccc(Cl)cc1N3 [Compound 58, 14H-4,6-ethanediylidene-10,13-ethano-8H-pyrimido[4,5-b][6,1,12,15]benzoxatriazacycloeicosin-15(16H)-one, 22-chloro-9,10,11,12,17,18,19,24-octahydro-27-methoxy-]	2000	2000
COc1cc2ncnc3c2cc1OCCCCCNCc1cc(F)c(Br)cc1N3 [Compound 61, 4,6-ethenopyrimido[4,5-b][6,1,12]benzoxadiazacyclopentadecine, 17-bromo-16-fluoro-8,9,10,11,12,13,14,19-octahydro-20-methoxy-]	15.8	398
COc1cc2ncnc3c2cc1OCCN(CCN1CCOCC1)C(=O)CNC(=O)Cc1ccc(Cl)cc1N3 [Compound 62, 4,6-ethanediylidene-8H-pyrimido[4,5-b][6,1,9,12]benzoxatriazacyclohexadecine-11,14-dione, 18-chloro-9,10,12,13,15,20-hexahydro-21-methoxy-10-[2-(4-morpholinyl)ethyl]-]	398	5010
COc1cc2ncnc3c2cc1OCCCCCCOc1cc(NC(=O)c2ccc(F)cc2)ccc1N3 [Compound 64, benzamide, 4-fluoro-N-(8,9,10,11,12,13-hexahydro-20-methoxy-4,6-ethanediylidene-19H-pyrimido[4,5-b][6,13,1]benzodioxaazacyclopentadecin-16-yl)-]	1000	398
COc1cc2ncnc3c2cc1OCCCCNC(=O)C1CCCN1Cc1cc(F)c(Cl)cc1N3 (stereo not drawn) [Compound 102, 4,6-ethanediylidenepyrimido[4,5-b]pyrrolo[2,1-m][6,1,11,14]benzoxatriazacycloheptadecin-13(8H)-one, 21-chloro-20-fluoro-9,10,11,12,13a,14,15,16,18,23-decahydro-24-methoxy-]	200	50.1
COc1cc2ncnc3c2cc1OCCNC(=S)C1CCCN1Cc1cc(F)c(Cl)cc1N3 (stereo not drawn) [Compound 104, 4,6-ethanediylidenepyrimido[4,5-b]pyrrolo[2,1-k][6,1,9,12]benzoxatriazacyclopentadecine-11(8H)-thione, 19-chloro-18-fluoro-9,10,11a,12,13,14,16,21-octahydro-22-methoxy-]	1000	316
